“Also recorded” adds a separate entry of the source.
How the values were obtained:
[1] = system: GST (glutathione-S-transferase), equine liver enzyme; experiment: GST-catalyzed GSH activation of prodrug; type: biochemical; settings: 13.5 units/ml equine liver GST
Excerpt: Therefore, tumors resistant to conventional chloroethylating agents because of the protective effect conferred by high levels of intracellular thiols, may be more sensitive to 2-acyl-1,2-bis(methylsulfonyl)-1-methyl (or 2-chloroethyl)hydrazines. […] Although elevation of GST levels has been associated with increased resistance to a variety of alkylating agents, such a change is expected to increase sensitivity to the thiol-activated prodrugs.

[2] = Prodrug activation by GSH, methanol generation determined using alcohol oxidase
Method: Our belief is confirmed by the following experiment in which we incubated a solution of 2-benzoyl-1,2-bis(methylsulfonyl)-1-methylhydrazine (R=C6 H5) in phosphate buffer (pH 7.4) at 37° C. in the presence and absence of GSH. The amount of methanol generated in 10 min, determined using alcohol oxidase by methodology described by Penketh et al. (1990) 33:730-732, was used as a measure of activation of the prodrug. In the presence of 1 mM GSH, the amount of methanol generated increased approximately 10-fold, relative to that occurring in phosphate buffer alone. […] In the case of the 1-(2-chloroethyl) derivative (the compound of Example 6), 22although precise quantitation was difficult due to the limitations of the assay, the compound of Example 6 gave a 6- to 7-fold greater amount of alkylated product when reacted with the nucleophile 4-(4'-nitrobenyl)pyridine in the presence of 5 mM GSH for 30 min at 37° C. than in its absence.

[3] = Spontaneous decomposition (hydrolysis) in aqueous phosphate buffer, phenol red proton release assay; type: physicochemical
Method: The compounds of the invention are relatively stable. As a measure of their stability, spontaneous decomposition in aqueous media was measured in phosphate buffer, pH 7.4 (37° C.). Hydrolysis at N-1 would result in the generation of a carboxylic acid and the corresponding 1,2-bis(methylsulfonyl)-1-(2-chloroethyl)hydrazine. Since both of these compounds are ionized under these conditions, the release of protons can be used to follow the decomposition of these and related compounds. The release of protons can be assayed by following the decrease in absorbance at 560 nm of a weakly buffered (1 mM potassium phosphate) phenol red (21 mg/L) solution. The assay has been calibrated using HC1 standards. […] The spontaneous hydrolysis of the compound of Example 1 at pH 7.4, 37° C. in 1 mM phosphate buffer occurs at approximately 0.7% of the rate of the corresponding prior art compounds [1,2,2-tris(methylsulfonyl)-1-(2-chloroethyl)hydrazine] under the same conditions. The rate of hydrolysis was highly sensitive to changes in temperature and pH (Tables II and III). […] At pH 7.4, 37° C., a 200 μM solution of the compound of Example 1 hydrolyzes at the rate of approximately 0.6% per hour. […] Therefore, stable aqueous solutions of this agent can be formulated. The other analogs synthesized according to Examples 2-6 also hydrolyzed at relatively slow rates.

Water solubility = type: physicochemical
[4] = Hydrolysis in the presence of bovine serum; type: in vitro ADME; settings: for Rate of hydrolysis: 200 μM solution
Excerpt: (§1) To verify that the prodrugs would be converted to alkylating species in vivo, we performed studies on the kinetics of hydrolysis of these compounds in the presence of serum and also in the presence of proteinase K (a protease of low specificity). […] Serum from different sources, i.e., mouse, bovine and man, were not equivalent in their activities or in their rank order of substrate specificity. […] Table IV reports the effects of bovine serum concentrates on hydrolysis of two compounds--the compounds of Example 1 and Example 6.
Effects of Bovine Serum Concentration on the
^a Expressed nmol/ml/min for a 200 μM solution.

L1210 leukemia = experiment: Survival time of mice bearing the L1210 leukemia; type: in vivo, mouse; settings: for antineoplastic activity / curative effect (in words): L1210 leukemia mice; for % 60-day survivors / % T/C (average survival time of treated/control mice × 100) / AvΔ wt % (average percent change in body weight from onset to termination of therapy): at opt. effective daily dose; for % T/C (average survival time of treated/control mice × 100): 60-day survivors not included; for AvΔ wt % (average percent change in body weight from onset to termination of therapy): vehicle control +2.0; for Opt. effective daily dose: once daily for six consecutive days, beginning 24 h after tumor implantation, L1210 mice
Method: The antineoplastic activity of each of the compounds of Examples 1-6 was assessed by measuring their effects on the survival time of mice bearing the L1210 leukemia by the method generally disclosed in Shyam et al. J. Med. Chem. (1990) 33:2259-2264. The compounds were administered once daily for six consecutive days. Percent change in body weight from onset to termination of therapy was recorded. The results are summarized in Table I. All of the compounds tested produced at least partial 60-day "cures" of mice bearing the L1210 leukemia. […] This compound also produced 80-90% "cures" at 10 and 15 mg/kg×6.
Effects of 2-Acyl-1,2-bis(methylsulfonyl)-1-
^a Administered once daily for six consecutive days, beginning 24 h
after tumor implantation, with 5-10 mice being used per group.
^b Average day of death for untreated tumorbearing mice was 8.4.
^c Average percent change in body weight from onset to termination of
therapy. Average percent change in body weight for vehicletreated control
^d % T/C = average survival time of treated/control mice × 100;
60day survivors are listed separately and are not included in this

[5] = Alkylation of 4-(4'-nitrobenzyl)pyridine in presence and absence of bovine serum; settings: 4 mM compound, 37° C., 1 h, 100 mM phosphate buffer pH 7.4
Method: Serum was capable of stimulating the alkylation of the model nucleophile, 4-(4'-nitrobenzyl)pyridine, by 2-acyl-1,2-bis(methylsulfonyl)-1-(2-chloroethyl)hydrazines, providing direct evidence for the serum-dependent generation of the alkylating species from these prodrugs (Table V).
Relative Alkylation of 4-(4'-Nitrobenzyl)pyridine
(NBP) by 4 mM 2-Acetyl-1,2-bis(methylsulfonyl)-1-(2-
chloroethyl)hydrazine at 37° C. for 1 h in 100 mM Phosphate
Buffer (pH 7.4) in the Presence and Absence of 20% Bovine

[6] = Hydrolysis in the presence of serum from different sources (mouse, bovine, man); type: in vitro ADME; settings: bovine and man, in all cases
Excerpt: as §1

[7] = Shyam et al. J. Med. Chem. (1990) 33:2259-2264; cited from earlier work
[8] = Stewart and Evans (1989); cited from earlier work

## CN(N(C(=O)c1ccccc1)S(C)(=O)=O)S(C)(=O)=O [2-benzoyl-1,2-bis(methylsulfonyl)-1-methylhydrazine]
[1]
  effect of GST on GSH activation rate (in words): doubling the activation rate
[2]; 1 mM GSH, 10 min, phosphate buffer pH 7.4, 37° C.
  increase in amount of methanol generated relative to phosphate buffer alone: approximately 10 fold
[2]; GSH
  dependence of rate of activation on GSH concentration (in words): directly proportional to the GSH concentration

## CC(=O)N(N(CCCl)S(C)(=O)=O)S(C)(=O)=O [Example 1, 1-Acetyl-1,2-bis(methylsulfonyl)-2-(2-chloroethyl)hydrazine]
[3]; 23 °C (37 °C = 1.00)
  Relative rate of hydrolysis: 0.21
[3]; 30 °C (37 °C = 1.00)
  Relative rate of hydrolysis: 0.57
[3]; 32 °C (37 °C = 1.00)
  Relative rate of hydrolysis: 0.72
[3]; 37 °C (reference, 1.00)
  Relative rate of hydrolysis: 1.00
[3]; for every 0.2 unit rise in pH, pH 7.4-7.8 range
  increase of hydrolysis rate with pH: approximately 50%
[3]; for every 5° C. rise in temperature
  change of hydrolysis rate with temperature: double
[3]; pH 7.4 (pH 7.8 = 1.00)
  Relative rate of hydrolysis: 0.48
[3]; pH 7.4, 37° C., 1 mM phosphate buffer, vs 1,2,2-tris(methylsulfonyl)-1-(2-chloroethyl)hydrazine
  rate of spontaneous hydrolysis relative to prior art compound: approximately 0.7%
[3]; pH 7.5 (pH 7.8 = 1.00)
  Relative rate of hydrolysis: 0.57
[3]; pH 7.6 (pH 7.8 = 1.00)
  Relative rate of hydrolysis: 0.70
[3]; pH 7.8 (reference, 1.00)
  Relative rate of hydrolysis: 1.00
[3]; phosphate buffer, 200 μM solution, pH 7.4, 37° C., read-out: rate of hydrolysis
  degraded at 1 h, 200 µM: ~0.6%
Water solubility
  water solubility (in words): most water-soluble analogs of this class
[4]; 0% v/v bovine serum
  Rate of hydrolysis: 0.02 nmol/mL/min
[4]; 5% v/v bovine serum
  Rate of hydrolysis: 0.055 nmol/mL/min
[4]; 10% v/v bovine serum
  Rate of hydrolysis: 0.10 nmol/mL/min
[4]; 20% v/v bovine serum
  Rate of hydrolysis: 0.26 nmol/mL/min
[4]; boiled dilute solutions of bovine serum
  decrease in ability of bovine serum to hydrolyze the compound after boiling: > 75%
L1210 leukemia; 7.5 mg/kg, six daily intraperitoneal doses
  60-day "cures": 80%
L1210 leukemia
  antineoplastic activity / curative effect (in words): highly active against the L1210 leukemia; also recorded: produced their curative effects at relatively low dosage levels
  % 60-day survivors: 80%
  % T/C (average survival time of treated/control mice × 100): 341%
  AvΔ wt % (average percent change in body weight from onset to termination of therapy): +1.0%
  Opt. effective daily dose: 7.5 mg/kg
[5]; bovine serum (20%)
  Relative alkylation of NBP: 5.7
[5]; no serum
  Relative alkylation of NBP: 1.0

## COCC(=O)N(N(CCCl)S(C)(=O)=O)S(C)(=O)=O [Example 5, 1,2-Bis(methylsulfonyl)-1-(2-chloroethyl)-2-methoxyacetylhydrazine]
Water solubility
  water solubility (in words): most water-soluble analogs of this class
[6]
  sensitivity to serum hydrolysis (in words): two most sensitive compounds
L1210 leukemia; 10 mg/kg×6
  "cures" of tumor-bearing mice: 100%
L1210 leukemia
  antineoplastic activity / curative effect (in words): produced their curative effects at relatively low dosage levels
  % 60-day survivors: 100%
  AvΔ wt % (average percent change in body weight from onset to termination of therapy): -8.4%
  Opt. effective daily dose: 10 mg/kg
L1210 leukemia; higher dose levels examined (above 10 mg/kg×6)
  lethality: lethal at the higher dose levels examined

## CN(N(S(C)(=O)=O)S(C)(=O)=O)S(C)(=O)=O [1-Methyl-1,2,2-tris(methylsulfonyl)hydrazine]
[7]
  antineoplastic activity (in words): also showed antineoplastic activity
  toxicity (in words): relatively less toxic

## CCCCS(=N)(=O)CCC(N)C(=O)O (stereo not drawn) [Buthionine sulfoximine]
[8]
  reversal of resistance to alkylating agents (in words): reverse this resistance by reducing cellular GSH levels

## CS(=O)(=O)N(CCCl)N(S(C)(=O)=O)S(C)(=O)=O [PRIOR ART, 1-(2-chloroethyl)-1,2,2-tris(methylsulfonyl)hydrazine, reference compound]
[7]
  antineoplastic activity (in words): displays potent antineoplastic activity
L1210 leukemia
  % 60-day survivors: 100%
  AvΔ wt % (average percent change in body weight from onset to termination of therapy): -7.2%
  Opt. effective daily dose: 60 mg/kg

## CC(C)(C)C(=O)N(N(CCCl)S(C)(=O)=O)S(C)(=O)=O [Example 4, 1,2-Bis(methylsulfonyl)-1-(2-chloroethyl)-2-pivaloylhydrazine]
L1210 leukemia
  % 60-day survivors: 60%
  % T/C (average survival time of treated/control mice × 100): 302%
  AvΔ wt % (average percent change in body weight from onset to termination of therapy): 0.0%
  Opt. effective daily dose: 20 mg/kg

## CS(=O)(=O)N(CCCl)N(C(=O)c1ccccc1)S(C)(=O)=O [Example 6, 1-Benzoyl-1,2-bis(methylsulfonyl)-2-(2-chloroethyl)hydrazine]
[4]; 0% v/v bovine serum
  Rate of hydrolysis: 0.06 nmol/mL/min
[4]; 5% v/v bovine serum
  Rate of hydrolysis: 0.22 nmol/mL/min
[4]; 10% v/v bovine serum
  Rate of hydrolysis: 0.52 nmol/mL/min
[4]; 20% v/v bovine serum
  Rate of hydrolysis: 1.31 nmol/mL/min
[6]
  sensitivity to serum hydrolysis (in words): two most sensitive compounds
L1210 leukemia
  % 60-day survivors: 20%
  % T/C (average survival time of treated/control mice × 100): 160%
  AvΔ wt % (average percent change in body weight from onset to termination of therapy): -7.7%
  Opt. effective daily dose: 20 mg/kg

## CCCC(=O)N(N(CCCl)S(C)(=O)=O)S(C)(=O)=O [Example 3, 1,2-Bis(methylsulfonyl)-1-(n-butyryl)-2-(2-chloroethyl)hydrazine]
L1210 leukemia
  % 60-day survivors: 20%
  % T/C (average survival time of treated/control mice × 100): 207%
  AvΔ wt % (average percent change in body weight from onset to termination of therapy): 0.0%
  Opt. effective daily dose: 10 mg/kg

## CCC(=O)N(N(CCCl)S(C)(=O)=O)S(C)(=O)=O [Example 2, 1,2-Bis(methylsulfonyl)-1-(2-chloroethyl)-2-propionylhydrazine]
Water solubility
  water solubility (in words): most water-soluble analogs of this class
L1210 leukemia; 5 mg/kg×6
  "cures" of mice bearing the L1210 leukemia: 60%
L1210 leukemia; 10 and 15 mg/kg×6
  "cures" of mice bearing the L1210 leukemia: 80-90%
L1210 leukemia
  antineoplastic activity / curative effect (in words): appeared to be the most potent; also recorded: produced their curative effects at relatively low dosage levels
  % 60-day survivors: 90%
  % T/C (average survival time of treated/control mice × 100): 217%
  AvΔ wt % (average percent change in body weight from onset to termination of therapy): -6.4%
  Opt. effective daily dose: 10 mg/kg

From US5256820A, “1-alkyl-2-acyl-1,2-disulfonylhydrazines” (Yale University, priority 1991, dated 1993)
